Reference: US11014926B2, “Pyrrolo-, pyrazolo-, imidazo-pyrimidine and pyridine compounds that inhibit MNK1 and MNK2” (EFFECTOR THERAPEUTICS, INC., priority 2015, dated 2021)
Counter-ions that a name gives are not always drawn. Like-named read-outs stand apart in the source and are kept apart here.

What was measured:
recombinant MNK1 = recombinant MNK1 (Homo sapiens (Human), UniProt Q9BUB5); assay: MNK Biochemical Enzymatic Assay (ADP-Glo kinase assay), MNK1; conditions: 10 nM recombinant MNK1, 300 μM ATP
Sequence of recombinant MNK1 (Q9BUB5 whole entry): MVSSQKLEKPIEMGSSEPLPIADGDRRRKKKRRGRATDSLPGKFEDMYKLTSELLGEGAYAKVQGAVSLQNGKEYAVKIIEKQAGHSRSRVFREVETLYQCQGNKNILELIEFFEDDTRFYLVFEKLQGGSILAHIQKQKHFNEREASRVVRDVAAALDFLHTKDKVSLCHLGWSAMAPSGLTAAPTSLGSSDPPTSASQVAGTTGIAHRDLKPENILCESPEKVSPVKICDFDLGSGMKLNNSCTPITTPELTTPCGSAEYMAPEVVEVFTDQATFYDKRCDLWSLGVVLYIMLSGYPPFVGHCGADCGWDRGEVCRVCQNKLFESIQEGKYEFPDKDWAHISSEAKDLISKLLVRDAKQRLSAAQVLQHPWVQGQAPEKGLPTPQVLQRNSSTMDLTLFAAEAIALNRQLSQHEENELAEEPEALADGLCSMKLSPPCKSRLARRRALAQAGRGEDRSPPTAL
Description: Compounds are screened for MNK inhibition using the ADP-Glo kinase assay kit (Promega, catalogue No. V9101). All kinase reactions are performed in Reaction Buffer E (15 mM HEPES pH7.4, 20 mM NaCl, 1 mM EGTA, 10 mM MgCl2, 0.1 mg/ml BGG, and 0.02% Tween-20). Final MNK 1 reactions contained 10 nM recombinant MNK1 (Life Technologies, PR9138A), 100 μM MNK substrate peptide Ac-TATKSGSTTKNR-NH2 (American Peptide Company), 300 μM ATP, and varying concentrations of the inhibitory compound of interest. Final MNK2 reactions contained 3 nM recombinant MNK2 (Life Technologies, PV5607), 50 μM MNK substrate peptide Ac-TATKSGSTTKNR-NH2 (American Peptide Company), 10 μM ATP, and varying concentrations of the inhibitory compound of interest. Final DMSO concentration in each reaction is 1%.
(§1) Kinase reactions are carried out in 96-well half-area white flat-bottom polystyrene plates in a final volume of 25 μl. MNK1/2 enzymes are pre-incubated with compound and peptide substrate for 5 minutes prior to the addition of ATP. After the addition of ATP, kinase reactions are incubated at room temperature for 40 minutes. Reactions are subsequently stopped by the addition of 25 μl of ADP-Glo Reagent and incubating for an additional 40 minutes. The final luminescent signal used for kinase activity readout is produced by the addition of 45 μl of Kinase Detection Reagent (ADP-Glo kit, Promega) and incubating for 40 minutes. The luminescent signal is detected using a Victor 2 multilabel counter (Perkin Elmer) and the concentration of compound necessary to achieve inhibition of enzyme activity by 50% (IC50) is calculated using signals from an 8-point compound dilution series.
To this end, IC50 values of less than 0.01 μM are labeled as “+++”, from 0.01 to 0.1 μM are labeled as “++”, and greater than 0.1 to 10.0 μM are labeled as “+” (NA means “not available”).

recombinant MNK2 = recombinant MNK2 (Homo sapiens (Human), UniProt Q9HBH9); assay: MNK Biochemical Enzymatic Assay (ADP-Glo kinase assay), MNK2
Sequence of recombinant MNK2 (Q9HBH9 whole entry): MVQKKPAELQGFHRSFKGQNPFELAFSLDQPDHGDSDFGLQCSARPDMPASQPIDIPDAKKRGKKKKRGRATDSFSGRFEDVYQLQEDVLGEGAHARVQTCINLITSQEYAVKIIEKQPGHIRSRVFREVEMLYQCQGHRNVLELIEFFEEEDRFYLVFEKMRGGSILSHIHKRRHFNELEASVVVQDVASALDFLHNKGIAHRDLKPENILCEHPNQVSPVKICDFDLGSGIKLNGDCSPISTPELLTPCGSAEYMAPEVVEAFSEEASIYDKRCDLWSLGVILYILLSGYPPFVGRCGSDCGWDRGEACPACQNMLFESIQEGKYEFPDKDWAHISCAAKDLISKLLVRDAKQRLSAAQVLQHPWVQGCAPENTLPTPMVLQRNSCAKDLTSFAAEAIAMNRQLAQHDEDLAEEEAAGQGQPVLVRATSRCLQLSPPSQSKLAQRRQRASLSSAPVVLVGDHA
Description: Compounds are screened for MNK inhibition using the ADP-Glo kinase assay kit (Promega, catalogue No. V9101). All kinase reactions are performed in Reaction Buffer E (15 mM HEPES pH7.4, 20 mM NaCl, 1 mM EGTA, 10 mM MgCl2, 0.1 mg/ml BGG, and 0.02% Tween-20). […] Final DMSO concentration in each reaction is 1%.
as §1

Phosphorylated eIF4E = assay: peIF4E Signaling Cellular Assay (CisBio peIF4E HTRF); format: cell-based; conditions: cells incubated with compound for 2 hrs at 37° C.
Description: Phosphorylated eIF4E is assayed using the CisBio peIF4E HTRF® assay kit (CisBio, catalogue No. 64EF4PEG). Cells are plated in 96-well tissue-culture treated plate in appropriate growth medium (90 μL). Compounds (10×) are diluted using 3-fold serial dilutions in cell culture medium and added to cells. Plates are incubated for 2 hrs at 37° C. The cell supernatant is carefully removed either by aspirating supernatant or by flicking the plate. Immediately 50 μL of supplemented lysis buffer (IX) is added and incubated for at least 30 minutes at room temperature under shaking. After homogenization by pipetting up and down, 16 μL of cell lysate is transferred from the 96-well cell-culture plate to a 384-well small volume white plate, 4 μL of premixed antibody solutions (vol/vol) is prepared in the detection buffer and added. The plate is covered with a plate sealer and incubated overnight at room temperature. The fluorescence emissions at two different wavelengths are read (665 nm and 620 nm) on a Wallac Victor2. Emission ratios are converted into percent inhibitions and imported into GraphPad Prism software. […] IC50 values are determined using a nonlinear regression model available in GraphPad Prism 5.
To this end, IC50 values of less than 0.05 μM are labeled as “+++”, from 0.05 to 1.0 μM are labeled as “++”, greater than 1.0 to 100 μM are labeled as “+”, and NA means “not available”.

[1] = 3 nM recombinant MNK2, 10 μM ATP, read-out: IC50 Mnk2

SMILES	IC50 (recombinant MNK1) [nM]	IC50 (recombinant MNK2) [nM]	IC50 (Phosphorylated eIF4E) [nM]	IC50 (recombinant MNK2; [1]) [nM]
O=C1NCc2cc(-n3ccc4cncnc43)ccc21 [Cpd. No. 1, 5-(7H-pyrrolo[2,3-d]pyrimidin-7-yl)isoindolin-1-one]	100 to 10000	100 to 10000	1000 to 100000	
CC1NC(=O)c2ccc(-n3ccc4cncnc43)cc21 (stereo not drawn) [Cpd. No. 2, 3-methyl-5-(7H-pyrrolo[2,3-d]pyrimidin-7-yl)isoindolin-1-one]		100 to 10000		
CC1NC(=O)c2ccc(N3CCc4cncnc43)cc21 (stereo not drawn) [Cpd. No. 3, 3-methyl-5-(5H-pyrrolo[2,3-d]pyrimidin-7(6H)-yl)isoindolin-1-one]		100 to 10000	1000 to 100000	
O=C1NCc2cc(-n3ncc4cnccc43)ccc21 [Cpd. No. 4, 5-(1H-pyrazolo[4,3-c]pyridin-1-yl)isoindolin-1-one]		100 to 10000		
O=C1NCc2nc(-n3ccc4cnccc43)ccc21 [Cpd. No. 5, 2-(1H-pyrrolo[3,2-c]pyridin-1-yl)-6,7-dihydro-5H-pyrrolo[3,4-b]pyridin-5-one]		100 to 10000		
c1cc2cc(-n3ccc4cncnc43)ccc2cn1 [Cpd. No. 6, 6-(7H-pyrrolo[2,3-d]pyrimidin-7-yl)isoquinoline]		100 to 10000	1000 to 100000	
Cc1ncnc2c1ccn2-c1ccc2c(c1)CNC2=O [Cpd. No. 7, 5-(4-methyl-7H-pyrrolo[2,3-d]pyrimidin-7-yl) isoindolin-1-one]		100 to 10000		
Cn1cc(-c2cn(-c3ccc4c(c3)CNC4=O)c3ncncc23)cn1 [Cpd. No. 8, 5-(5-(1-methyl-1H-pyrazol-4-yl)-7H-pyrrolo[2,3-d]pyrimidin-7-yl)isoindolin-1-one]	10 to 100	10 to 100	1000 to 100000	
O=C1NCc2cc(-n3ccc4cnccc43)ncc21 [Cpd. No. 11, 6-(1H-pyrrolo[3,2-c]pyridin-1-yl)-1H-pyrrolo[3,4-c]pyridin-3(2H)-one]		100 to 10000	1000 to 100000	
Nc1ncnc2c1ccn2-c1ccc2c(c1)CNC2=O [Cpd. No. 12, 5-(4-amino-7H-pyrrolo [2,3-d]pyrimidin-7-yl) isoindolin-1-one]		100 to 10000		
c1ncc2ccn(-c3ccc4c(c3)CSC4)c2n1 [Cpd. No. 13, 7-(1,3-dihydrobenzo[c]thiophen-5-yl)-7H-pyrrolo[2,3-d]pyrimidine]		100 to 10000		
O=C1NCc2nc(-n3ccc4cnccc43)ncc21 [Cpd. No. 14, 2-(1H-pyrrolo[3,2-c]pyridin-1-yl)-6,7-dihydro-5H-pyrrolo[3,4-d]pyrimidin-5-one]		100 to 10000		
O=C1NCc2cc(-n3cnc4cncnc43)ccc21 [Cpd. No. 16, 5-(9H-purin-9-yl) isoindolin-1-one]		100 to 10000		
CC1NC(=O)c2c(Cl)cc(-n3ccc4cncnc43)cc21 (stereo not drawn) [Cpd. No. 17, 7-chloro-3-methyl-5-(7H-pyrrolo [2,3-d]pyrimidin-7-yl) isoindolin-1-one]	< 10	10 to 100	50 to 1000	
CC1(C)NC(=O)c2c(Cl)cc(-n3ccc4cncnc43)cc21 [Cpd. No. 18, 7-chloro-3,3-dimethyl-5-(7H-pyrrolo [2,3-d]pyrimidin-7-yl) isoindolin-1-one]	< 10		50 to 1000	< 10
O=C1NCc2cc(-n3cc(-c4ccncc4)c4cncnc43)ccc21 [Cpd. No. 19, 5-(5-(pyridin-4-yl)-7H-pyrrolo[2,3-d]pyrimidin-7-yl)isoindolin-1-one]		100 to 10000		

SMILES	IC50 (recombinant MNK1) [nM]	IC50 (recombinant MNK2) [nM]	IC50 (Phosphorylated eIF4E) [nM]	IC50 (recombinant MNK2; [1]) [nM]
COC(=O)NCC1NC(=O)c2ccc(-n3ccc4cncnc43)cc21 (stereo not drawn) [Cpd. No. 20, methyl ((3-oxo-6-(7H-pyrrolo[2,3-d]pyrimidin-7-yl)isoindolin-1-yl)methyl)carbamate]		100 to 10000		
NCC1NC(=O)c2ccc(-n3ccc4cncnc43)cc21 (stereo not drawn) [Cpd. No. 21, 3-(aminomethyl)-5-(7H-pyrrolo[2,3-d]pyrimidin-7-yl)isoindolin-1-one hydrochloride]		100 to 10000		
Cc1cc(-n2ccc3cncnc32)cc2c1C(=O)NC2C (stereo not drawn) [Cpd. No. 22, 3,7-dimethyl-5-(7H-pyrrolo[2,3-d]pyrimidin-7-yl)isoindolin-1-one]	10 to 100	10 to 100	1000 to 100000	
O=C1NCc2cc(-n3ccc4cncnc43)cc(F)c21 [Cpd. No. 23, 7-fluoro-5-(7H-pyrrolo [2,3-d]pyrimidin-7-yl) isoindolin-1-one]		100 to 10000		
O=C1NCc2cc(-n3cc(-c4ccccc4Cl)c4cncnc43)ccc21 [Cpd. No. 24, 5-(5-(2-chlorophenyl)-7H-pyrrolo [2,3-d]pyrimidin-7-yl) isoindolin-1-one]		100 to 10000		
O=C1NCc2cc(-n3cc(-c4cscn4)c4cncnc43)ccc21 [Cpd. No. 25, 5-(5-(thiazol-4-yl)-7H-pyrrolo[2,3-d]pyrimidin-7-yl)isoindolin-1-one]		100 to 10000		
N#Cc1ccccc1-c1cn(-c2ccc3c(c2)CNC3=O)c2ncncc12 [Cpd. No. 26, 2-(7-(1-oxoisoindolin-5-yl)-7H-pyrrolo[2,3-d]pyrimidin-5-yl)benzonitrile]		100 to 10000		
O=C1NC2(CCCC2)c2cc(-n3ccc4cncnc43)cc(Cl)c21 [Cpd. No. 27, 4′-chloro-6′-(7H-pyrrolo[2,3-d]pyrimidin-7-yl)spiro[cyclopentane-1,1′-isoindolin]-3′-one]			50 to 1000	< 10
Nc1ncnc2c1ccn2-c1cc(Cl)c2c(c1)C1(CCCCC1)NC2=O [Cpd. No. 28, 6′-(4-amino-7H-pyrrolo[2,3-d]pyrimidin-7-yl)-4′-chlorospiro[cyclohexane-1,1′-isoindolin]-3′-one]			< 50	< 10
O=C1NC2(CCCCC2)c2cc(-n3ccc4cncnc43)cc(Cl)c21 [Cpd. No. 29, 4′-chloro-6′-(7H-pyrrolo[2,3-d]pyrimidin-7-yl)spiro[cyclohexane-1,1′-isoindolin]-3′-one]		10 to 100	< 50	
Nc1ncnc2c1ccn2-c1cc(Cl)c2c(c1)C1(CCCC1)NC2=O [Cpd. No. 30, 6′-(4-amino-7H-pyrrolo[2,3-d]pyrimidin-7-yl)-4′-chlorospiro[cyclopentane-1,1′-isoindolin]-3′-one]			< 50	< 10
Cc1cc(-n2ccc3c(N)ncnc32)cc2c1C(=O)NC21CCN(C)CC1 [Cpd. No. 31, 6-(4-amino-7H-pyrrolo [2,3-d]pyrimidin-7-yl)-1′,4-dimethylspiro[isoindoline-1,4′-piperidin]-3-one]			50 to 1000	
O=C1NCc2nc(-n3ccc4cncnc43)ccc21 [Cpd. No. 32, 2-(7H-pyrrolo[2,3-d]pyrimidin-7-yl)-6,7-dihydro-5H-pyrrolo[3,4-b]pyridin-5-one]			50 to 1000	
Cc1cc(-n2ccc3c(N)ncnc32)cc2c1C(=O)NC21CCN(CC(F)F)CC1 [Cpd. No. 33, 6-(4-amino-7H-pyrrolo[2,3-d]pyrimidin-7-yl)-1′-(2,2-difluoroethyl)-4-methylspiro[isoindoline-1,4′-piperidin]-3-one]			50 to 1000	
Cc1cc(-n2ccc3c(N)ncnc32)nc2c1C(=O)NC21CCCCC1 [Cpd. No. 34, 2′-(4-amino-7H-pyrrolo[2,3-d]pyrimidin-7-yl)-4′-methylspiro[cyclohexane-1,7′-pyrrolo[3,4-b]pyridin]-5′(6′H)-one]			< 50	
